Data published in PubChem BioAssay (NCI).
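GI50 is the concentration that inhibits growth by half. TGI marks complete inhibition of growth.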

Experiments:
Assay in all cases: NCI-60 cell line screen, 384-well format
SF-268 CNS = test system: SF-268 CNS
CCRF-CEM leukemia = test system: CCRF-CEM leukemia
MALME-3M melanoma = test system: MALME-3M melanoma
A549 NSCLC = test system: A549 NSCLC
SNB-75 CNS = test system: SNB-75 CNS
NCI-H322M lung = test system: NCI-H322M lung
BT-549 breast = test system: BT-549 breast
M14 melanoma = test system: M14 melanoma
MDA-MB-435 melanoma = test system: MDA-MB-435 melanoma
UACC-62 melanoma = test system: UACC-62 melanoma
PC-3 prostate = test system: PC-3 prostate
HL-60(TB) leukemia = test system: HL-60(TB) leukemia
DU-145 prostate = test system: DU-145 prostate
HS 578T breast = test system: HS 578T breast
NCI-H23 lung = test system: NCI-H23 lung
OVCAR-4 ovarian = test system: OVCAR-4 ovarian
HCC-2998 colon = test system: HCC-2998 colon
SR leukemia = test system: SR leukemia
SW-620 colon = test system: SW-620 colon
NCI-H226 lung = test system: NCI-H226 lung
HCT-116 colon = test system: HCT-116 colon
MOLT-4 leukemia = test system: MOLT-4 leukemia
UACC-257 melanoma = test system: UACC-257 melanoma
HT29 colon = test system: HT29 colon
COLO 205 colon = test system: COLO 205 colon
MCF7 breast = test system: MCF7 breast
NCI-H460 NSCLC = test system: NCI-H460 NSCLC
HOP-62 NSCLC = test system: HOP-62 NSCLC
A498 renal = test system: A498 renal
CAKI-1 renal = test system: CAKI-1 renal
OVCAR-3 ovarian = test system: OVCAR-3 ovarian
RPMI-8226 leukemia = test system: RPMI-8226 leukemia
RXF 393 renal = test system: RXF 393 renal
SF-539 CNS = test system: SF-539 CNS
SF-295 CNS = test system: SF-295 CNS
OVCAR-8 ovarian = test system: OVCAR-8 ovarian
OVCAR-5 ovarian = test system: OVCAR-5 ovarian
786-0 renal = test system: 786-0 renal
TK-10 renal = test system: TK-10 renal
UO-31 renal = test system: UO-31 renal
SK-OV-3 ovarian = test system: SK-OV-3 ovarian
EKVX NSCLC = test system: EKVX NSCLC
NCI-H522 lung = test system: NCI-H522 lung
NCI/ADR-RES ovarian = test system: NCI/ADR-RES ovarian
HCT-15 colon = test system: HCT-15 colon
LOX IMVI melanoma = test system: LOX IMVI melanoma
IGROV1 ovarian = test system: IGROV1 ovarian

C=CC(=O)Nc1cccc(Oc2nc(Nc3ccc(N4CCN(C)CC4)cc3)nc3ccsc23)c1
GI50 (SF-268 CNS): 1840 nM
TGI (SF-268 CNS): 4010 nM
GI50 (CCRF-CEM leukemia): 1500 nM
TGI (CCRF-CEM leukemia): 2840 nM
GI50 (MALME-3M melanoma): 1760 nM
TGI (MALME-3M melanoma): 3160 nM
GI50 (A549 NSCLC): 1640 nM
TGI (A549 NSCLC): 3500 nM
GI50 (SNB-75 CNS): 1350 nM
TGI (SNB-75 CNS): 2740 nM
GI50 (NCI-H322M lung): 902 nM
TGI (NCI-H322M lung): 3350 nM
GI50 (BT-549 breast): 1380 nM
TGI (BT-549 breast): 2690 nM
GI50 (M14 melanoma): 1890 nM
TGI (M14 melanoma): 3320 nM
GI50 (MDA-MB-435 melanoma): 1780 nM
TGI (MDA-MB-435 melanoma): 3200 nM
GI50 (UACC-62 melanoma): 1520 nM
TGI (UACC-62 melanoma): 2870 nM
GI50 (PC-3 prostate): 1700 nM
TGI (PC-3 prostate): 3120 nM
GI50 (HL-60(TB) leukemia): 1600 nM
TGI (HL-60(TB) leukemia): 2970 nM
GI50 (DU-145 prostate): 1420 nM
TGI (DU-145 prostate): 3210 nM
GI50 (HS 578T breast): 1450 nM
TGI (HS 578T breast): 2800 nM
GI50 (NCI-H23 lung): 1940 nM
TGI (NCI-H23 lung): 5370 nM
GI50 (OVCAR-4 ovarian): 1690 nM
TGI (OVCAR-4 ovarian): 3130 nM
GI50 (HCC-2998 colon): 1700 nM
TGI (HCC-2998 colon): 3090 nM
GI50 (SR leukemia): 857 nM
TGI (SR leukemia): 1950 nM
GI50 (SW-620 colon): 1740 nM
TGI (SW-620 colon): 3140 nM
GI50 (NCI-H226 lung): 1570 nM
TGI (NCI-H226 lung): 3880 nM
GI50 (HCT-116 colon): 1680 nM
TGI (HCT-116 colon): 3090 nM
GI50 (MOLT-4 leukemia): 1530 nM
TGI (MOLT-4 leukemia): 2890 nM
GI50 (UACC-257 melanoma): 1520 nM
TGI (UACC-257 melanoma): 2870 nM
GI50 (HT29 colon): 1740 nM
TGI (HT29 colon): 3160 nM
GI50 (COLO 205 colon): 1830 nM
TGI (COLO 205 colon): 3250 nM
GI50 (MCF7 breast): 1550 nM
TGI (MCF7 breast): 2960 nM
GI50 (NCI-H460 NSCLC): 1620 nM
TGI (NCI-H460 NSCLC): 3030 nM
GI50 (HOP-62 NSCLC): 2000 nM
TGI (HOP-62 NSCLC): 4540 nM
GI50 (A498 renal): 1220 nM
TGI (A498 renal): 2490 nM
GI50 (CAKI-1 renal): 833 nM
TGI (CAKI-1 renal): 2150 nM
GI50 (OVCAR-3 ovarian): 923 nM
TGI (OVCAR-3 ovarian): 2200 nM
GI50 (RPMI-8226 leukemia): 1460 nM
TGI (RPMI-8226 leukemia): 2780 nM
GI50 (RXF 393 renal): 1230 nM
TGI (RXF 393 renal): 2490 nM
GI50 (SF-539 CNS): 1750 nM
TGI (SF-539 CNS): 3150 nM
GI50 (SF-295 CNS): 5010 nM
TGI (SF-295 CNS): 15700 nM
GI50 (OVCAR-8 ovarian): 1590 nM
TGI (OVCAR-8 ovarian): 3000 nM
GI50 (OVCAR-5 ovarian): 2020 nM
TGI (OVCAR-5 ovarian): 5790 nM
GI50 (786-0 renal): 1460 nM
TGI (786-0 renal): 2810 nM
GI50 (TK-10 renal): 957 nM
TGI (TK-10 renal): 2250 nM
GI50 (UO-31 renal): 1390 nM
TGI (UO-31 renal): 2700 nM
GI50 (SK-OV-3 ovarian): 1570 nM
TGI (SK-OV-3 ovarian): 4190 nM
GI50 (EKVX NSCLC): 1310 nM
TGI (EKVX NSCLC): 3840 nM
GI50 (NCI-H522 lung): 334 nM
TGI (NCI-H522 lung): 1410 nM
GI50 (NCI/ADR-RES ovarian): 1940 nM
TGI (NCI/ADR-RES ovarian): 4000 nM
GI50 (HCT-15 colon): 1560 nM
TGI (HCT-15 colon): 3030 nM
GI50 (LOX IMVI melanoma): 1810 nM
TGI (LOX IMVI melanoma): 3220 nM
GI50 (IGROV1 ovarian): 1060 nM
TGI (IGROV1 ovarian): 2260 nM
